From PubChem BioAssay (NCI) come the findings set out here.

Among the test systems are A549 NSCLC; CAKI-1 renal; HCC-2998 colon; HCT-15 colon; K-562 leukemia; KM12 colon; OVCAR-5 ovarian; RXF 393 renal; SF-295 CNS; SK-MEL-28 melanoma.
Holding throughout (assay): NCI tumour cell line growth inhibition, 48 h

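Assay format: 96-well plates, 48-hour exposure. The concentration for 50% growth inhibition is given as GI50. TGI is the concentration that stops growth completely.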 Some results are limits rather than exact numbers.

With `COC(=O)c1c2c(c(C)[n+]([O-])c1C)C(=O)C=C(NCc1cccc(Cl)c1)C2=O`, the GI50 in the assay with A549 NSCLC is 0.462 µM; in the assay on CAKI-1 renal, 0.204 µM; in the assay with HCC-2998 colon, 0.329 µM; in the assay on HCT-15 colon, 0.205 µM; in the assay on K-562 leukemia, 0.085 µM; in the assay on KM12 colon, 0.2 µM. Further, the GI50 was 1.18 µM with OVCAR-5 ovarian, 1.2 µM with RXF 393 renal, 0.422 µM in the assay with SF-295 CNS and 0.716 µM in the assay with SK-MEL-28 melanoma. In addition, the TGI with A549 NSCLC is 2.22 µM; in the assay with CAKI-1 renal it was 1.95 µM; in the assay with HCC-2998 colon, 1.42 µM; in the assay on HCT-15 colon, 1.52 µM; in the assay with K-562 leukemia, more than 30.2 µM; in the assay with KM12 colon it was 1.69 µM. The TGI with OVCAR-5 ovarian worked out at 2.57 µM; with RXF 393 renal, 2.53 µM; with SF-295 CNS it was 1.66 µM; with SK-MEL-28 melanoma, 2.09 µM.
Turning to `COc1cc(OC)c(OC)cc1/C=C/c1cnnc2ccccc12`, the TGI with A549 NSCLC, in the assay with CAKI-1 renal, in the assay on HCC-2998 colon, in the assay on HCT-15 colon, in the assay on K-562 leukemia and in the assay on KM12 colon was more than 10 µM throughout. The TGI in the assay with OVCAR-5 ovarian, with RXF 393 renal, in the assay on SF-295 CNS and in the assay on SK-MEL-28 melanoma was more than 10 µM each time.
As to `C[C@H]1COCCN1c1cc(C2(S(=O)(=O)C3CC3)CC2)nc(-c2ccc(NC(=S)NCCO)cc2)n1`, the GI50 with A549 NSCLC is 0.0782 µM; in the assay with CAKI-1 renal, 0.139 µM; with HCC-2998 colon, 0.035 µM; in the assay with HCT-15 colon, 0.17 µM; in the assay on K-562 leukemia it was 0.0498 µM; with KM12 colon, 0.0494 µM. For the same molecule, the GI50 was 0.0405 µM in the assay with OVCAR-5 ovarian, less than 0.0112 µM in the assay with RXF 393 renal, 0.0194 µM with SF-295 CNS and less than 0.01 µM in the assay on SK-MEL-28 melanoma. The TGI with A549 NSCLC was 4.35 µM; with CAKI-1 renal, 10.2 µM; in the assay with HCC-2998 colon it was more than 70.3 µM; in the assay with HCT-15 colon, more than 100 µM; with K-562 leukemia, more than 100 µM; with KM12 colon it was more than 100 µM. Further, the TGI is more than 100 µM in the assay with OVCAR-5 ovarian, 0.0689 µM in the assay with RXF 393 renal, 0.228 µM with SF-295 CNS and 1.1 µM with SK-MEL-28 melanoma.
As for `CCCCc1c2cnccc2c(CCCC)c2c1[nH]c1ccccc12`, the TGI with A549 NSCLC is 29.5 µM; in the assay on CAKI-1 renal it was 30.2 µM; in the assay with HCC-2998 colon, more than 100 µM; in the assay with HCT-15 colon it was 46 µM; in the assay with K-562 leukemia, 19.9 µM; with KM12 colon it was 24.7 µM. Besides, the TGI with OVCAR-5 ovarian is more than 100 µM; in the assay on RXF 393 renal, 24.9 µM; in the assay on SF-295 CNS it was 20.2 µM; with SK-MEL-28 melanoma it was 21.7 µM.
Consider `OC12c3ccccc3C1CCCCCCCCCC21OCCO1` (stereo not given), for which the TGI with A549 NSCLC, in the assay on CAKI-1 renal, in the assay with HCC-2998 colon, in the assay on HCT-15 colon, in the assay with K-562 leukemia and with KM12 colon was more than 100 µM in each case. Moreover, the TGI in the assay on OVCAR-5 ovarian, in the assay on RXF 393 renal, in the assay with SF-295 CNS and with SK-MEL-28 melanoma was more than 100 µM in each case.
`Nc1nc(SCc2ccccc2Cl)cc(C(=O)O)n1`: the TGI in the assay on A549 NSCLC, in the assay on CAKI-1 renal, in the assay with HCC-2998 colon, with HCT-15 colon, in the assay on K-562 leukemia and in the assay with KM12 colon was more than 100 µM throughout. In addition, the TGI in the assay with OVCAR-5 ovarian, in the assay on RXF 393 renal, with SF-295 CNS and in the assay with SK-MEL-28 melanoma was more than 100 µM throughout.
`O=C(c1ccco1)c1c(C(F)(F)F)n([O-])c2cc(C(F)(F)F)ccc2[n+]1=O`: the GI50 in the assay with A549 NSCLC was 0.445 µM; with CAKI-1 renal, 1.51 µM; in the assay with HCC-2998 colon, 0.371 µM; with HCT-15 colon, 0.404 µM; in the assay with K-562 leukemia, 0.172 µM; with KM12 colon, 0.516 µM. Further, the GI50 in the assay on OVCAR-5 ovarian is 1.86 µM; in the assay on RXF 393 renal, 0.43 µM; in the assay with SF-295 CNS it was 1.29 µM; with SK-MEL-28 melanoma, 1.67 µM. For the same molecule, the TGI in the assay on A549 NSCLC worked out at 1.02 µM; in the assay with CAKI-1 renal, 2.97 µM; with HCC-2998 colon, 0.862 µM; in the assay on HCT-15 colon it was 0.842 µM; in the assay with K-562 leukemia, 0.379 µM; with KM12 colon it was 1.19 µM. Also, the TGI in the assay with OVCAR-5 ovarian was 3.39 µM; in the assay with RXF 393 renal it was 0.929 µM; in the assay with SF-295 CNS, 2.83 µM; in the assay on SK-MEL-28 melanoma, 3.27 µM.
Take `COc1ccc(C(=O)CC2=Nc3nnc(CCCCCCCc4nnc5n4C(=O)C(CC(=O)c4ccc(OC)cc4)=N5)n3C2=O)cc1`: the TGI in the assay on A549 NSCLC, with CAKI-1 renal, in the assay with HCC-2998 colon, in the assay with HCT-15 colon, in the assay on K-562 leukemia and in the assay with KM12 colon was more than 100 µM each time. Besides, the TGI in the assay with OVCAR-5 ovarian, in the assay with RXF 393 renal, with SF-295 CNS and with SK-MEL-28 melanoma was more than 100 µM throughout.
